According to PMC10791743, “Selective CK1α degraders exert antiproliferative activity against a broad range of human cancer cell lines” (Nature Communications, 2024):

Test system: β-catenin
Assay: HiBiT-β-catenin stabilization, live-cell kinetic (HEK293 cells)
Type: cell-based
Protocol: Next, TMT-proteomics studies were performed to determine broader degradation selectivity profiles of our two lead compounds. […] As expected, increased protein levels of p53, p21, and β-catenin were detected in the treated cells. To investigate the relationship between β-catenin stabilization relative to CK1α degradation, kinetic monitoring of endogenously tagged HiBiT-β-catenin was performed in live cells and compared to our measurements of CK1α degradation kinetics. Treatment of cells with the lead compounds from each series led to dose-dependent stabilization of β-catenin levels with slower kinetics compared to the observed rapid degradation of CK1α. […]
White 96-well assay plates (Corning, Cat. # 3017) were seeded with 30,000 cells/well in growth media for CK1α-HiBiT HEK293 LgBiT stable and HiBiT-β-catenin HEK293 LgBiT stable and incubated overnight at 37 °C and 5% CO2. […] Luminescence was allowed to equilibrate for all plates for 2.5 h. […] Luminescence was read every 5 min for 24 h. At the end of all 24-h cycles, CellTiter Glo 2.0 (Promega, Cat. #G9242) was added to the plates, incubated for at least 10 min and luminescence was read using the GloMax Discover.
Relative protein level was determined based on normalization to the DMSO control and reported at Fractional RLUs. […]

`O=C1CCC(N2Cc3cc(Nc4noc5ccccc45)ccc3C2=O)C(=O)N1` (stereo not shown) [SJ3149] was tested, and the “Time to detectable increase of β-catenin” value was no more than 30 min.
